Where two headings read alike, the source gives them in different places.
What was measured:
A549 cells [1] = assay: cells; type: cell-based, human; settings: Homo sapiens
Procedure: (§1) The human NSCLC cell lines (A549, PC-9, and PC-9/GR) and other cell lines (16HBE and LO2) were purchased from the American Type Culture Collection (ATCC, Manassas, VA, USA). […] All cell lines were cultivated at 37°C under 5% CO2.
(§2) The Cell Counting Kit-8 assays (Beyotime, Shanghai, China) were performed to assess cell viability. […] Microplate readers (Infinite F500, Tecan, Mannedorf, Switzerland) were used to measure the absorbance (A) at 450 nm. All samples were assessed in triplicate.

PC-9 cells = assay: cells; type: cell-based, human; settings: Homo sapiens
Procedure: as §1, §2

PC-9/GR xenografts = PC-9/GR xenografts in BALB/c nude mice; type: in vivo; settings: BH 2.5 mg/kg, gefitinib 25 mg/kg, alone or co-administered, intragastric
[2] = Toxicity study in nude mice: organ index, blood routine, serum biochemistry; type: in vivo
Procedure: At the end of the experiment, blood samples were taken and analyzed by blood routine. […] The lungs and spleen were weighed and recorded. H&E staining of the heart, liver, spleen, lungs, and kidneys was performed to evaluate the cytotoxic effects of BH.

PC-9/GR cells = assay: CCK-8 cell viability assay, PC-9/GR (gefitinib-resistant); type: cell-based; settings: Homo sapiens, 48 h, Figure 3B, unit only in axis title Concentration (μM)
Procedure: as §1, §2

LO2 cells = assay: Toxicity to normal human cell line LO2 (Figure S1); type: cell-based
Procedure: Figure S1. The toxicity of Bruceine H (BH) and Bruceine D (BD) to 16HBE (A) and LO2 (B) cells was evaluated.

A549 cells [3] = assay: Wound healing assay for migration; type: cell-based, human; settings: 4 μM, 48 h
Procedure: A549 cells (3 × 10^5/ml/well) were seeded into a six-well plate. After overnight culture, when the fusion rate reached 95%–100%, the sterile pipette tip was perpendicular to the plate plane, and a straight wound was drawn on the cell monolayer. Following treatment with BD or BH, the migration of the cells was examined under a microscope (×4, Nikon, Tokyo, Japan), and pictures were obtained at 0 and 48 h. The computation of the cell migration formula is as follows: relative migration area (%) = (0 h wound area – 48 h wound area)/0 h wound area × 100%.

A549 cells [4] = assay: Apoptosis by flow cytometry (Annexin V-FITC/PI), A549; type: cell-based, human; settings: A549, 48 h, various concentrations, relative to control
Procedure: After being digested with trypsin without EDTA, the cells were washed gently with culture medium and twice with cold PBS. The pellet was resuspended in 400 μl of 1× binding buffer, the resuspended cells were transferred to flow tubes, then Annexin V-FITC (5 μl) and propidium iodide (10 μl) were added, and the mixture was incubated for 15 min at room temperature in the dark. The percentage of apoptotic cells was determined by flow cytometry (Backman, CA, USA) and FlowJo V10 software.

[5] = nude mice serum, mean ± SD (Table S4)
[6] = nude mice, routine blood (Table S3)
[7] = nude mice, Gef 25, BH 2.5, Gef + BH 25 + 2.5 mg×kg^-1×d^-1, X±S

## CC1=CC(=O)[C@@H](O)[C@]2(C)[C@H]3[C@@H](O)[C@H](O)[C@@]4(CO)OC[C@@]35[C@@H](C[C@@H]12)OC(=O)[C@H](O)[C@]54O [BH, Bruceine H]
A549 cells [1]; A549, 24 h, Figure 2A, read-out: IC50 (24h)
  IC50: 44.4 µM
A549 cells [1]; A549, 48 h, read-out: IC50 (48 h)
  IC50: 25.5 µM
PC-9 cells; PC-9, 24 h, Figure 2A, read-out: IC50 (24h)
  IC50: 55.4 µM
PC-9 cells; PC-9, 48 h, read-out: IC50
  IC50: 12.6 µM
PC-9/GR xenografts
  tumor growth of PC-9/GR xenografts: slight inhibitory effect
[2]; [5]
  HDL-C: 1.14 ± 0.18 mmol/L
  LDL-C: 1.40 ± 0.08 mmol/L
  TC: 3.25 ± 0.21 mmol/L
  TG: 0.70 ± 0.16 mmol/L
[2]; [6]
  GR: 3.36±2.394 ×10^9/L
  GR (%): 80.567±11.274%
  HCT: 62.867±5.658%
  HGB: 172.333 ± 12.014 g/L
  LY: 0.920±0.401 ×10^9/L
  LY (%): 14.7±6.165%
  MCH: 15.567 ± 0.289 pg
  MCHC: 296.333 ± 10.970 g/L
  MCV: 52.567 ± 1.823 fL
  MO: 0.242±0.045 ×10^9/L
  MO (%): 5.043±1.086%
  MPV: 7.267 ± 0.208 fL
  PCT: 0.753±0.195 mL/L
  PLT: 1030±241.156 ×10^9/L
  RBC: 13.193±1.792 ×10^12/L
  WBC: 6.633±2.371 ×10^8/L
[2]; [7]
  Lung index: 32.463 ± 2.078 g/kg
  Spleen index: 5.949 ± 0.526 g/kg
PC-9/GR cells
  IC50: 21.7 µM
LO2 cells
  toxicity to LO2 cells: no apparent toxicity
A549 cells [3]
  migration of A549 cells (wound healing): impaired
A549 cells [4]
  early apoptosis rate: increased

From publication PMC9024338, “Bruceine H Mediates EGFR-TKI Drug Persistence in NSCLC by Notch3-Dependent β-Catenin Activating FOXO3a Signaling” (Frontiers in Oncology, 2022)
